Results as given in US20020137929A1, “1 - (3-heterocyclylphenyl) isothiourea, -isourea, -guanidine and -amidine herbicidal agents” (Intellectual Property Department, BASF Aktiengesellschaft, priority 1998, published 2002).

Key:
ZEAMX (Corn, Field) = test: Postemergence herbicidal evaluation; type: in vivo, Zea mays; details: postemergence
How it was run: (§1)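 ~2-wk seedlings; postemergence spray, 40 psi; vehicle 1:1 acetone:water + 0.5% Tween 20; rate ≈0.0156–0.500 kg/ha; greenhouse hold; scored 4–5 wk after treatment, 0–9 scale vs control; repeat tests averaged.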

CYPSE (Flatsedge) [1] = test: Preemergence weed control under flooded paddy conditions; type: in vivo, Cyperus serotinus; details: rated 3-4 weeks after treatment
How it was run: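 Herbicidal effect is scored visually on a 0-9 scale against an untreated control, three to four weeks after compounds are pipetted into the flood water (1.5 to 3 cm deep) over seeds planted in silt loam at 0.5 cm depth. Rates: about 0.0313 to 0.500 kg/ha.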

ORYSAT (Rice, Tebonnet) = test: Postemergence herbicidal evaluation; type: in vivo, Oryza sativa, (L.) Tebonnet; details: postemergence
How it was run: as §1

[2] = system: CHEAL (Lambsquarters, Common); test: Preemergence herbicidal evaluation; type: in vivo, Chenopodium album; details: preemergence, rated 4-5 weeks after treatment, 0-9 scale
How it was run: (§2)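 Each species is sown separately in potting soil over roughly an inch of soil before any emergence. The soil surface then receives an aqueous acetone spray delivering about 0.0156 to 0.500 kg/ha of compound. After four to five weeks, injury is scored from 0 to 9 relative to a control.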

[3] = system: CHEAL (Lambsquarters, Common); test: Postemergence herbicidal evaluation; type: in vivo, Chenopodium album; details: postemergence
How it was run: as §1

[4] = system: GLXMAW (Soybean, Williams); test: Postemergence herbicidal evaluation; type: in vivo, Glycine max, (L.) Merr. cv Williams; details: postemergence
How it was run: as §1

ABUTH (Velvetleaf) = test: Postemergence herbicidal evaluation; type: in vivo, Abutilon theophrasti; details: postemergence
How it was run: as §1

GALAP (Galium) = test: Preemergence herbicidal evaluation; type: in vivo, Galium aparine; details: preemergence, rated 4-5 weeks after treatment, 0-9 scale
How it was run: as §2

CASOB (Sicklepod) = test: Preemergence herbicidal evaluation; type: in vivo, Cassia obtusifolia; details: preemergence, rated 4-5 weeks after treatment, 0-9 scale
How it was run: as §2

AMBEL (Ragweed, Common) [5] = test: Postemergence herbicidal evaluation; type: in vivo, Ambrosia artemisifolia; details: postemergence
How it was run: as §1

CYPIR (Rice Flatsedge) = test: Postemergence weed control under flooded paddy conditions; type: in vivo, Cyperus iria; details: postemergence weeds, rated 3 to 4 weeks after treatment
How it was run: (§3)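 Herbicidal effect is judged by eye on a 0–9 scale versus control, 3–4 weeks after dosing. Dosing is into flood water kept 1.5–3 cm over the soil, at about 0.0313–0.500 kg/ha in aqueous/acetone 50/50 v/v, on 3–5 cm weeds and 1.5–2.5-leaf rice seedlings.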

ECHCG (Barnyardgrass) = test: Postemergence herbicidal evaluation; type: in vivo, Echinochloa crus-galli; details: postemergence
How it was run: as §1

AMBEL (Ragweed, Common) [6] = test: Preemergence herbicidal evaluation; type: in vivo, Ambrosia artemisifolia; details: preemergence, rated 4-5 weeks after treatment, 0-9 scale
How it was run: as §2

CYPSE (Flatsedge) [7] = test: Postemergence weed control under flooded paddy conditions; type: in vivo, Cyperus serotinus; details: postemergence weeds, rated 3 to 4 weeks after treatment
How it was run: as §3

## CCOC(=O)CN1C(=O)C(CC(=O)NO)S/C1=N/c1cc(-n2c(=O)cc(C(F)(F)F)n(C)c2=O)c(F)cc1Cl (stereo not drawn) [Compound 98, Ethyl 2-{{2-chloro-5-[3,6-dihydro-3-methyl-2,6-dioxo-4-(trifluoromethyl)-1(2H)-pyrimidinyl]-4-fluorophenyl}imino}-5-[(hydroxycarbamoyl)methyl]-4-oxo-3-thiazolidineacetate]
ZEAMX (Corn, Field); rate 0.0156 kg/ha
  ZEAMX herbicidal rating: 3.0
ZEAMX (Corn, Field); rate 0.0313 kg/ha
  ZEAMX herbicidal rating: 4.0
ZEAMX (Corn, Field); rate 0.0625 kg/ha
  ZEAMX herbicidal rating: 4.0
ZEAMX (Corn, Field); rate 0.1250 kg/ha
  ZEAMX herbicidal rating: 5.0
CYPSE (Flatsedge) [1]; 0.0313 kg/ha
  CYPSE herbicidal effect rating: 2.0
CYPSE (Flatsedge) [1]; 0.0625 kg/ha
  CYPSE herbicidal effect rating: 3.0
CYPSE (Flatsedge) [1]; 0.1250 kg/ha
  CYPSE herbicidal effect rating: 4.0
CYPSE (Flatsedge) [1]; 0.2500 kg/ha
  CYPSE herbicidal effect rating: 4.0
ORYSAT (Rice, Tebonnet); rate 0.0156 kg/ha
  ORYSAT herbicidal rating: 1.5
ORYSAT (Rice, Tebonnet); rate 0.0313 kg/ha
  ORYSAT herbicidal rating: 2.5
ORYSAT (Rice, Tebonnet); rate 0.0625 kg/ha
  ORYSAT herbicidal rating: 2.5
ORYSAT (Rice, Tebonnet); rate 0.1250 kg/ha
  ORYSAT herbicidal rating: 2.0
[2]; 0.0156 kg/ha
  CHEAL rating: 0.0
[2]; 0.0313 kg/ha
  CHEAL rating: 2.0
[2]; 0.0625 kg/ha
  CHEAL rating: 5.0
[2]; 0.1250 kg/ha
  CHEAL rating: 7.0
[2]; 0.2500 kg/ha
  CHEAL rating: 9.0
[2]; 0.5000 kg/ha
  CHEAL rating: 9.0
[3]; rate 0.0156 kg/ha
  CHEAL herbicidal rating: 0.0
[3]; rate 0.0313 kg/ha
  CHEAL herbicidal rating: 1.0
[3]; rate 0.0625 kg/ha
  CHEAL herbicidal rating: 3.0
[3]; rate 0.1250 kg/ha
  CHEAL herbicidal rating: 9.0
[4]; rate 0.0156 kg/ha
  GLXMAW herbicidal rating: 4.5
[4]; rate 0.0313 kg/ha
  GLXMAW herbicidal rating: 4.5
[4]; rate 0.0625 kg/ha
  GLXMAW herbicidal rating: 5.5
[4]; rate 0.1250 kg/ha
  GLXMAW herbicidal rating: 5.5
ABUTH (Velvetleaf); rate 0.0156 kg/ha
  ABUTH herbicidal rating: 2.0
ABUTH (Velvetleaf); rate 0.0313 kg/ha
  ABUTH herbicidal rating: 7.0
ABUTH (Velvetleaf); rate 0.0625 kg/ha
  ABUTH herbicidal rating: 9.0
ABUTH (Velvetleaf); rate 0.1250 kg/ha
  ABUTH herbicidal rating: 9.0
GALAP (Galium); 0.0156 kg/ha
  GALAP rating: 1.0
GALAP (Galium); 0.0313 kg/ha
  GALAP rating: 0.0
GALAP (Galium); 0.0625 kg/ha
  GALAP rating: 6.0
GALAP (Galium); 0.2500 kg/ha
  GALAP rating: 7.0
GALAP (Galium); 0.5000 kg/ha
  GALAP rating: 7.0
CASOB (Sicklepod); 0.0156 kg/ha
  CASOB rating: 0.0
CASOB (Sicklepod); 0.0313 kg/ha
  CASOB rating: 0.0
CASOB (Sicklepod); 0.0625 kg/ha
  CASOB rating: 0.0
CASOB (Sicklepod); 0.1250 kg/ha
  CASOB rating: 1.0
CASOB (Sicklepod); 0.2500 kg/ha
  CASOB rating: 2.0
CASOB (Sicklepod); 0.5000 kg/ha
  CASOB rating: 7.0
AMBEL (Ragweed, Common) [5]; rate 0.0156 kg/ha
  AMBEL herbicidal rating: 3.0
AMBEL (Ragweed, Common) [5]; rate 0.0313 kg/ha
  AMBEL herbicidal rating: 3.0
AMBEL (Ragweed, Common) [5]; rate 0.0625 kg/ha
  AMBEL herbicidal rating: 4.0
AMBEL (Ragweed, Common) [5]; rate 0.1250 kg/ha
  AMBEL herbicidal rating: 9.0
CYPIR (Rice Flatsedge); Rate 0.0313 kg/ha
  Herbicidal rating CYPIR: 9.0
CYPIR (Rice Flatsedge); Rate 0.0625 kg/ha
  Herbicidal rating CYPIR: 9.0
CYPIR (Rice Flatsedge); Rate 0.1250 kg/ha
  Herbicidal rating CYPIR: 9.0
CYPIR (Rice Flatsedge); Rate 0.2500 kg/ha
  Herbicidal rating CYPIR: 9.0
ECHCG (Barnyardgrass); rate 0.0156 kg/ha
  ECHCG herbicidal rating: 0.0
ECHCG (Barnyardgrass); rate 0.0313 kg/ha
  ECHCG herbicidal rating: 0.0
ECHCG (Barnyardgrass); rate 0.0625 kg/ha
  ECHCG herbicidal rating: 1.0
ECHCG (Barnyardgrass); rate 0.1250 kg/ha
  ECHCG herbicidal rating: 1.0
AMBEL (Ragweed, Common) [6]; 0.0156 kg/ha
  AMBEL rating: 0.0
AMBEL (Ragweed, Common) [6]; 0.0313 kg/ha
  AMBEL rating: 0.0
AMBEL (Ragweed, Common) [6]; 0.0625 kg/ha
  AMBEL rating: 2.0
AMBEL (Ragweed, Common) [6]; 0.1250 kg/ha
  AMBEL rating: 3.0
AMBEL (Ragweed, Common) [6]; 0.2500 kg/ha
  AMBEL rating: 5.0
AMBEL (Ragweed, Common) [6]; 0.5000 kg/ha
  AMBEL rating: 7.0
CYPSE (Flatsedge) [7]; Rate 0.0313 kg/ha
  Herbicidal rating CYPSE: 2.0
CYPSE (Flatsedge) [7]; Rate 0.0625 kg/ha
  Herbicidal rating CYPSE: 3.0
CYPSE (Flatsedge) [7]; Rate 0.1250 kg/ha
  Herbicidal rating CYPSE: 4.0
CYPSE (Flatsedge) [7]; Rate 0.2500 kg/ha
  Herbicidal rating CYPSE: 4.0
